From US12630565B2, “DNA-dependent protein kinase inhibitor” (DIZAL (JIANGSU) PHARMACEUTICAL CO., LTD., priority 2019, dated 2026)

Assays:
Rat hepatocyte = assay: Metabolic stability assay (rat hepatocyte Clint); assay type: in vitro ADME; details: 1 μM compound, cryopreserved hepatocytes 1 million cells per mL
Outline: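 Compound at 1 μM incubated with cryopreserved rat hepatocytes, 1 million cells/mL, sampled 0–120 min with acetonitrile quench and LC-MS/MS quantitation. CLint (μL/min/E6) derived from elimination rate constant and half-life of parent disappearance, scaled by cell concentration.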

[1] = biological target: Full length human DNAPK protein (Homo sapiens, UniProt P78527); assay: DNA-PK enzymatic assay (TR-FRET); assay type: biochemical; details: 10 μM ATP, 1.6 μM peptide substrate
[2] = system: MDCKII-MDR1-BCRP cell monolayers; assay: MDCKII-MDR1-BCRP efflux assay; assay type: in vitro ADME; details: 5 μM compound, 120 min, HBSS pH 7.4
Outline: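 Bidirectional (A-B, B-A) transport of 5 μM compound across MDCKII-MDR1-BCRP monolayers in HBSS, 25 mM HEPES pH 7.4, ~37° C. for 120 min, triplicate; donor and receiver concentrations measured, monolayer integrity checked with Lucifer yellow. Papp and efflux ratio calculated.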

[3] = Brain-blood-barrier penetration assay (short oral absorption model, Kp,uu); assay type: in vivo; details: male Han Wistar rats, oral 10 mg/kg in 1% methylcellulose, AUC(brain)/AUC(plasma)×(fu,brain/fu.plasma)
Experimental: It is believed that Kp,uu, the relationship between concentrations of unbound drug in brain and in plasma, is the key to prediction of CNS action and should be the main parameter measured and optimized for in drug discovery (Di L et al., Journal of Medicinal Chemistry [2013], 56: 2-12).
In vitro plasma and brain binding assay was carried out by using equilibrium dialysis method with semi-permeable membrane. Plasma and diluted brain homogenate (1:4 with DPBS pH7.4) were spiked with 5 μM test compound (in triplicate) and dialyzed against equal volume of 150 μL 100 mM PBS buffer (pH7.4) at 37° C. for 18 hours in a slowly rotated plate. At the end of incubation, a 50 μL aliquot from the receiver side and a 5 μL from the donor chamber were taken. The 5 μL sample was further diluted with 45 μL of blank plasma or brain homogenate. Paired samples were matrix-matched with either buffer or blank plasma/brain homogenate and mixed for 2 min, and then precipitated with 150 μL cold acetonitrile with 100 ng/mL tolbutamide as internal standard. After centrifuging at 4000 rpm for 20 min, supernatant was diluted with 0.1% formic acid aqueous solution and analyzed for LC/MS/MS (API 4000, Applied Biosystems, Foster City). Unbound fraction (fu) of test compound in the brain homogenate and diluted plasma were calculated by the ratio of the buffer side response to the brain homogenate/plasma side response, and unbound fraction (fu,pl and fu,br) of test compound in non-diluted plasma and tissue were calculated from measured fu in homogenate and plasma with the following equation: fu,bl (fu,br)=(1/D)/[(1/fu−1)+1/D)]. D is dilution factor.
A Short oral absorption (SOA) model is an in-vivo screening model to identify brain penetration of a compound. Six male Han Wistar rats purchased from Beijing Vital River were orally dosed with the compound at 10 mg/kg in 1% methylcellulose At 0.5, 1, 2, 4, 7 and 16 hour post-dose, cerebral spinal fluid (CSF) was collected from cisterna magna. Plasma samples will be processed for plasma by centrifugation at approximately 4° C., 3,000 g within half an hour of collection. Plasma samples will be removed to a labeled tube and stored at −80 degree until analysis. Brain tissue was harvested and homogenized in 3× volume of 100 mM phosphate buffered saline (pH7.4). All samples were stored at ˜−70° C. prior to LC/MS/MS analysis.
Standards were prepared by spiking blank plasma, brain homogenate and artificial CSF covering 0.5 to 500 ng/mL. Homogenized brain tissue along with plasma samples were precipitated by adding 3-fold volume of cold acetonitrile containing internal standard (40 ng/mL Dexamethasone and 40 ng/mL Diclofenac), and 10 μL of CSF samples were precipitated with 100 μL of cold acetonitrile containing internal standard. After 2 min vortex and 5 min centrifugation at 14,000 rpm, supernatant was analyzed by LC/MS/MS (API 4000, Applied Biosystems, Foster City). Two sets of standard curves were run at the beginning and end of each batch from plasma sample analysis. For brain and CSF samples, one standard curve was analyzed along with test samples.
Total brain levels, expressed as brain/plasma ratio (Kp) were measured by AUCbrain/AUCplasma in rodents after oral administration. Free fraction of test compound in biological matrix was determined by in vitro plasma and brain binding assay. Kp,uu was calculated by the following equation: Kp,uu=AUC (brain)/AUC (plasma)×(fu,brain/fu.plasma).

[4] = Metabolic stability assay (human microsomal Clint); assay type: in vitro ADME; details: 1 μM compound, 1 mg/mL microsomes, 1 mM NADPH, 37° C.
Outline: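 Compound (1 μM) incubated at 37 °C with pooled human liver microsomes (1 mg/mL) and 1 mM NADPH in 100 mM phosphate, pH 7.4. Samples quenched in acetonitrile at 0–30 min and analysed by LC-MS/MS for parent loss. CLint reported in μl/min/mg.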

- Rat hepatocyte CLint (μl/min/10^−6 cells) (Rat hepatocyte): 17.0 μl/min/10^−6 cells
- IC50 [1]: 1.1 nM
- MDCK-Mdr1-BCRP efflux ratio [2]: 1.8
- Kp, uu (brain) [3]: 0.36
- Human liver microsomal CLint [4]: 68.5 µL/min/mg
Compound: COC1CCC(n2nc(C)c3cnc(Nc4cn5ncnc5cc4C)nc32)C1 (single isomer, unassigned) [Example 111, 1-(3-methoxycyclopentyl)-3-methyl-N-(7-methyl-[1,2,4]triazolo[1,5-a]pyridin-6-yl)-1H-pyrazolo[3,4-d]pyrimidin-6-amine]
